How the values were obtained:
Puccinia recondita = experiment: Green house CG1: preventative control of brown rust on wheat caused by Puccinia recondita (Puccrt P1); assay type: in vivo; details: 150 ppm spray, wheat seedlings, % diseased leaf area, untreated control 90
Method: The spray solutions were prepared in several steps: The stock solution were prepared: a mixture of acetone and/or dimethylsulfoxide and the wetting agent/emulsifier Wettol, which is based on ethoxylated alkylphenoles, in a relation (volume) solvent-emulsifier of 99 to 1 was added to 25 mg of the compound to give a total of 5 ml. Water was then added to total volume of 100 ml. This stock solution was diluted with the described solvent-emulsifier-water mixture to the given concentration. CG1 Preventative Control of Brown Rust on Wheat Caused by Puccinia recondita (Puccrt P1) The first two developed leaves of pot-grown wheat seedling were sprayed to run-off with an aqueous suspension, containing the concentration of active ingredient or their mixture as described below. The next day the plants were inoculated with spores of Puccinia recondita. […] The extent of fungal attack on the leaves was visually assessed as % diseased leaf area.

Septoria tritici = experiment: Microtest: activity against leaf blotch on wheat caused by Septoria tritici (Septtr), also comparison test CM3; assay type: cell-based; details: 7 days after inoculation, control = 100%
Botrytis cinerea = experiment: Microtiterplate test: activity against the grey mold Botrytis cinerea (Botrci), also comparison test CM1; assay type: cell-based; details: 7 days after inoculation, control = 100%
Phytophthora infestans = assay type: cell-based; details: 7 days after inoculation, control = 100%

Compound | CG1 Disease (%) at 150 ppm Puccrt P1 (Puccinia recondita) [%] | CM3 Growth (%) at 8 ppm Septtr (Septoria tritici) [%] | CM1 Growth (%) at 8 ppm Botrci (Botrytis cinerea) [%] | CM2 Growth (%) at 31 ppm Phytin (Phytophthora infestans) [%]
OC1(c2ccc(-c3ccc(F)cc3)cc2)CCCCCC1n1cncn1 (stereo not drawn) | 10 | – | – | –
OC1(c2ccc(Oc3ccc(Cl)cc3)cc2)CCCCC1n1cncn1 (stereo not drawn) [Compound I-11, 1-[4-(4-chlorophenoxyl)phenyl]-2-(1,2,4-triazol-1-yl)cyclohexanol] | – | 0 | 0 | 57
OC1(c2ccc(-c3ccccc3)cc2)CCCCC1n1cncn1 (stereo not drawn) [Compound I-12] | – | 1 | 0 | 41
OC1(c2ccc(-c3ccc(Cl)cc3)cc2)CCCCC1n1cncn1 (stereo not drawn) [Compound I-15] | – | 2 | 0 | –
OC1(c2cccc(-c3ccc(Cl)cc3)c2)CCCCC1n1cncn1 (stereo not drawn) [Compound I-19] | – | 1 | 0 | 73
OC1(c2ccccc2)CCCCC1n1cncn1 (stereo not drawn) [Example No. 25 of EP 0 152 031, reference compound] | – | 80 | 70 | 94
OC1(c2ccc(F)cc2)CCCCC1n1cncn1 (stereo not drawn) [Example No. 28 of EP 0 152 031, reference compound] | – | 83 | 40 | 93
OC1(c2ccc(Cl)cc2)CCCCCC1n1cncn1 (stereo not drawn) [reference compound] | 30 | – | – | –
OC1(c2ccc(Cl)cc2)CCCCC1n1cncn1 (stereo not drawn) [reference compound] | – | 52 | – | 78

From patent US20150307460A1, “Substituted Triazoles and Imidazoles and Their Use as Fungicides” (BASF SE, priority 2012, published 2015)
